Consider 2 compounds from patent US12246022B2, “Compositions and methods for treating, preventing or reversing age associated inflammation and disorders” (BROWN UNIVERSITY, priority 2019, dated 2025).

In series [1] the test system is human LINE-1. The series can be described thus: Islatravir Inhibitory Quotient (IQ) estimate for human LINE-1 in PBMC and brain. As to conditions: for Human LINE-1 IQ C168 hr, PBMC, single dose / Human LINE-1 IQ Cavg (ss), PBMC, q.d.: EFdA-TP EC50 = 316 nM; for Human LINE-1 IQ C168 hr, Brain, single dose / Human LINE-1 IQ Cavg (ss), Brain, q.d.: assume Br./plasma = 0.25.

For series [2] the following is noted: cited from earlier work.
The conditions of series [3]: Table 13 Comparative Studies; cited from earlier work.
The conditions of series [4]: human plasma PK, oral dose 0.5-30 mg; cited from earlier work.
The subject of series [5] is human LINE-1. The series can be described thus: Human LINE-1 retrotransposition assay, related experiments with islatravir (pYX017, HeLa cells, Tables 12 and 13). In kind it is cell-based. The following applies: for pIC50: Homo sapiens. The procedure: In related experiments, islatravir and other compounds were tested for inhibition of retrotransposition activity of human LINE-1 in HeLa cells according to the following procedure.
HeLa cervical cancer cells were cultivated at 37° C. in a humidified 5% CO2 incubator in Dulbecco's Modified Eagle's Medium (DMEM)—high glucose, with 4500 mg/L glucose, L-glutamine, sodium pyruvate and sodium bicarbonate (Sigma), supplemented with 10% of heat inactivated fetal bovine serum (Thermo Fisher).
Assays were performed using reporter plasmid pYX017 as described (Xie, et al., 2011) with several modifications. The reporter assay was performed in 96-well white optical bottom plates. HeLa cells were seeded in wells 24 h prior to transfection and compound treatment so that cells were approximately 30% confluent on the day of transfection. Different cell plating densities were tested and a density of 2×10^3 cells was determined to be optimal.
Compounds were resuspended in DMSO. Serial dilutions (1:3) were prepared in DMSO. Medium containing different concentrations of the compounds were prepared by adding 2 μl of the compound dilution to 1 ml of the culture medium. The final concentration of DMSO in the medium was 0.2%.
FuGENE® HD transfection reagent (Promega, E2311, Lot 382574 and Lot 397842) was used to transfect the plasmids into the cells. The transfection reagent: DNA mixture was prepared in OpiMEM (Thermo Fisher) according to manufacturer's instructions. Different ratios of transfection reagent to DNA were tested and a ratio of 3:1 was determined to be optimal. Culture medium was removed from the cells and discarded. The transfection reagent: DNA mixture (5 μl) was mixed with the compound containing medium (100 μl/well) and this was added onto the cells of each well. Cells were incubated at 37° C./5% CO2 for different incubation time. A 72 h incubation time was determined to be optimal.
Luciferase reporter activity was quantified with the Dual-Luciferase® Reporter Assay System (Promega) according to manufacturer's instructions for multiwell plates except that cells were lysed directly on the multiwell plate with 30 μl of the passive lysis buffer (PLB) for 20 min at room temperature, with gentle shaking to ensure complete cell lysis.
Firefly and Renilla luciferase signals were measured using a SpectraMax i3x Multi-Mode Microplate Reader. Integration times of 100 ms and 10 ms were used to measure the Firefly and Renilla signals respectively. Relative L1 activity is calculated as Firefly/Renilla *1000 or Firefly/Renilla *10,000. Dose response inhibition data were fit to a four parameter logistic equation using non-linear regression (using Graphpad Prism 8), to determine IC50 values for each inhibitor.

In series [6] the test system is HIV WT. The following applies: Grobler et al. 2019; read-out: HIV WT IC50; cited from earlier work.
Series [7] has as its system L1HS sequences. Nature of the series: L1 sequence abundance (copy number) by TaqMan qPCR in senescent fibroblasts. In kind it is cell-based, human. As to conditions: LF1, IMR90, W138 fibroblasts, 5 μM in medium, 4 months in senescence. As for the experimental part:
The ABI ViiA 7 instrument (Applied Biosystems) was used for all experiments. qPCR of DNA was performed using the TaqMan system (Applied Biosystems) as described by Coufal et al. (2009).^64 […] of purified genomic DNA was used with the indicated primers (see Table 1). Reverse transcription qPCR (RT-qPCR) of RNA was performed using the SYBR Green system (Applied Biosystems). Polyadenylated RNA was used in all experiments assessing transcription of L1 elements, and total RNA was used for all other genes. Total RNA was harvested using the Trizol reagent (Invitrogen). Poly(A) RNA was isolated from total RNA using the NEBNext Poly(A) mRNA Magnetic Isolation Module (New England Biolabs). […] Effectiveness of the DNase digestion was assessed using controls that omitted the RT enzyme.
Primer sets 1 to 5 (Table 1, amplicons A to E in FIG. 1B) to human L1 were designed to preferentially amplify elements of the human-specific L1 HS and evolutionarily recent primate-specific L1 PA(2-6) subfamilies, as follows. […] Sequences of primers corresponding to a consensus of all the murine IFN alpha family genes, as well as to the IFNB1 gene, were obtained from the publication by Gautier et al.^71 For quantifying relative L1 genomic copy number (human cells), the TaqMan multiplex method developed by Coufal et al. (2009)^72 was used. […]

The subject of series [8] is SASP response. Nature of the series: Senescence entry and SASP gene expression in human fibroblasts (RT-qPCR). In kind it is cell-based. The following applies: LF1, 5 μM. An excerpt:
(§1) To obtain replicatively senescent (RS) cells, LF1 cultures were serially propagated until proliferation ceased. At each passage, after reaching 80% confluence cells were trypsinized and diluted 1:4. […] In early passage cultures, the time between passages is constant at approximately 3 days. […] At this point, after reaching 80% confluence, the cells were replated at 1:2 dilution, and this time was designated as the last passage (point A in FIG. 2A). […] Under this experimental regimen, the majority of the cells in the culture enter senescence within a 3-4 weeks window centered roughly around the time of last passage (grey bar in FIG. 2A). At point B (4 weeks), the cultures were trypsinized and replated as described^60 to eliminate a small fraction of persisting contact-inhibited cells. Cultures were again replated at point C (8 weeks).
The ABI ViiA 7 instrument (Applied Biosystems) was used for all experiments. qPCR of DNA was performed using the TaqMan system (Applied Biosystems) as described by Coufal et al. (2009).^64 […] of purified genomic DNA was used with the indicated primers (see Table 1). Reverse transcription qPCR (RT-qPCR) of RNA was performed using the SYBR Green system (Applied Biosystems). […] Effectiveness of the DNase digestion was assessed using controls that omitted the RT enzyme.
In general terms: In qPCR the cycle at which signal appears reflects the starting amount.

The test system of series [9] is IFN-I response. The series can be described thus: IFN-I response in senescent and 3X human fibroblasts (RT-qPCR, ELISA, immunoblotting). The format is cell-based. As to conditions: LF1 and IMR90, 5 μM.
Text: as §1
Oncogene-induced senescence (OIS) was elicited by infecting proliferating LF1 cells with pLenti CMV RasV12 Neo (Addgene plasmid #22259). Generation of lentiviral particles and the infection procedure are described below. At the end of the infection, cells were reseeded at 15-20% confluency and selected with G418 (250 μg/ml) maintained continuously until the end of the experiment Medium was changed every 3 days until the cultures were harvested at the indicated time points. Stress-induced premature senescence (SIPS) was elicited by […] irradiation with 20 Gy given at a rate of 87 cGy/min in one fraction using a cesium-137 gamma source (Nordion Gammacell 40). Cells were 15-20% confluent at the time of irradiation. Medium was changed immediately after irradiation, and at 3-day intervals thereafter. […]
The ABI ViiA 7 instrument (Applied Biosystems) was used for all experiments. qPCR of DNA was performed using the TaqMan system (Applied Biosystems) as described by Coufal et al. (2009).^64 […] of purified genomic DNA was used with the indicated primers (see Table 1). […] Effectiveness of the DNase digestion was assessed using controls that omitted the RT enzyme. […]

The mark [10] stands for this setting: daily dose of 2 mg, steady state.

pIC50: −log10 of the molar value. Where two headings read alike, the source gives them in different places.

A word on the pIC50: it is −log10 of the IC50, conventionally taken in molar units. Consider `C#C[C@]1(CO)O[C@@H](n2cnc3c(N)nc(F)nc32)C[C@@H]1O` [Islatravir, 2′-deoxy-4′-ethynyl-2-fluoroadenosine], for which the “Human LINE-1 IQ C168 hr, PBMC, single dose” value in series [1] (Dose 0.5 mg) is given as 1.84; in series [1] (Dose 1 mg), 2.61; in series [1] (Dose 2 mg), 3.00; in series [1] (Dose 10 mg), 15.64; in [1] (Dose 30 mg), 76.88. Besides, the “Human LINE-1 IQ Cavg (ss), PBMC, q.d.” value in series [1] (Dose 0.5 mg) was 23.41; in series [1] (Dose 1 mg), 39.79; in series [1] (Dose 2 mg), 50.54; in [1] (Dose 10 mg), 295.15; in series [1] (Dose 30 mg), 915.31. The “Human LINE-1 IQ C168 hr, Brain, single dose” value in series [1] (Dose 0.5 mg) is recorded as 0.46; in series [1] (Dose 1 mg) it was 0.66; in series [1] (Dose 2 mg), 0.75; in [1] (Dose 10 mg), 3.92; in [1] (Dose 30 mg), 19.22. Besides, the “Human LINE-1 IQ Cavg (ss), Brain, q.d.” value in series [1] (Dose 0.5 mg) was 5.85; in series [1] (Dose 1 mg), 9.95; in series [1] (Dose 2 mg), 12.64; in series [1] (Dose 10 mg), 73.79; in series [1] (Dose 30 mg), 228.83. The “IQ for human LINE-1 in PBMCs” value in series [1] (setting [10]) is 51. Besides, the “IQ for human LINE-1 in brain” value in series [1] (setting [10]) is on record as 13. Moreover, the “Plasma-Brain Kapp” value in [2] (non-human primate) is on record as 0.25. For the same compound, the “blood brain barrier penetration” value in series [2] (single oral doses, Rhesus macaque) was “penetrated the blood brain barrier (BBB)”. Moreover, in series [3], the huCSF/Plasma was 0.25. The oral clearance in series [4] is 31 to 45 L/h. The “human LINE-1 inhibitor activity compared to the other reverse transcriptase inhibitory drugs tested” value in series [5] (HeLa cells) was “unexpectedly better human LINE-1 inhibitor activity”. Moreover, the pIC50 is 8.30 in series [5] (HeLa, Table 13 Comparative Studies, read-out: Human Line-1 IC50); 8.89 in series [5] (HeLa, see Table 12, read-out: in vitro IC50 for human LINE-1 in cell-based assay); 8.89 in series [5] (HeLa cells, pYX017, 72 h, n = 3, read-out: Human LINE-1 IC50, Average); 8.85 in [5] (HeLa cells, pYX017, 72 h, read-out: Human LINE-1 IC50, Exp. 3); 8.93 in [5] (HeLa cells, pYX017, 72 h, read-out: Human LINE-1 IC50, Exp.2); 9.70 in series [6].

Turning to `Nc1ncnc2c1ncn2CCOCP(=O)(O)O` [Adefovir], the “senescence-induced increase of L1 copy number” value in [7] is “significantly prevented this increase”. Further, the “SASP gene expression (IL-6, MMP3) in senescent cells” value in series [8] was “significantly decreased”. Also, the “interferon gene expression (IFN-α, IFN-β1) in senescent cells” value in series [9] is reported as “significantly reduced”.
